Measurements as given in patent US20080306007A1, “AGENTS FOR PROPHYLAXIS OR TREATMENT OF NEUROLOGICAL RELATED DISEASES AND CONDITIONS” (Newcastle Innovation Limited, priority 2007, published 2008).

Legend:
[1] = tested on: synaptosomes (SV exocytosis); experiment: KCl-evoked Ca2+-dependent glutamate release assay in synaptosomes; type: cell-based, rat; conditions: peptide preincubated 30 min; KCl stimulation
Experimental: (§1) In all SV recycling studies synaptosomes were prepared from rat cerebral cortex by centrifugation on discontinuous percoll gradients (Dunkley et al. 1986). The glutamate release assay was performed as described before (Cousin and Robinson 2000a). Data is presented as Ca^2+-dependent glutamate release, calculated as the difference between release in plus and minus Ca^2+ solutions. Penetratin peptides (Genemed Synthesis) were preincubated with the synaptosomes for 30 min before stimulation and had no effect on Ca^2+-independent release of glutamate.
A block in SV turnover cannot be ascribed to an inhibition of SVE until an effect on exocytosis has been excluded. Two independent exocytosis assays were conducted to assess this: endogenous glutamate release and FM2-10 unloading. Neither the DynI769-784AA nor DynI769-784EE peptide had any significant effect on KCl-evoked Ca^2+-dependent glutamate release (DynI769-784AA […]±8.4% of control; DynI769-784EE […]±9.5% of control, FIG. 5c). Both peptides had small effects on FM2-10 unloading evoked by 30 mM KCl (DynI769-784AA −81.1±0.8% of control; DynI769-784EE −82.3±0.6% of control, FIG. 5d). Finally, the extent of SVE inhibition by the peptides was quantified by calculating “retrieval efficiency” which takes into account prior exocytosis; a value of less than one indicating a selective SVE inhibition. […]

[2] = biological target: T1, dynamin I-syndapin I complex (Rattus norvegicus, UniProt Q9Z0W5); experiment: Peptide disruption of immunoprecipitated dynamin I-syndapin I complex from nerve terminals; type: binding; conditions: syndapin I or dynamin I immunoprecipitates incubated with peptide
T1 construct: Syndapin I or dynamin I were immunoprecipitated from nerve terminals; from tissue; host or cells: rat brain crude (P2) synaptosomes
Experimental: (§2) To determine whether the phospho-box sequence might account for syndapin I recruitment to dynamin I, the ability of a DynI769-784AA peptide (FIG. 5a) to disrupt their interaction was tested. Syndapin I or dynamin I were immunoprecipitated from nerve terminals and the individual protein complexes were incubated with DynI769-784AA (SEQ ID No. 8) peptide (see below). Their interaction in both cases was reduced by the peptide, as indicated by the specific release of either binding partner from the bead-bound complex (FIG. 4c). No elution of endophilin I (FIG. 4c) or amphiphysin I (data not shown) was detected, highlighting the specificity of the interaction.
(§3) Crude (P2) synaptosomes were prepared from rat brain and lysed as described in Example 1.1.3. Synaptosome lysates were incubated with 5 μg of anti-syndapin I or […] pre-bound to protein G-sepharose (Roche) for 3 h at 4° C. Beads were washed with ice-cold PBS, eluted in SDS-PAGE sample buffer and blotted with anti-syndapin I, anti-endophilin I and anti-dynamin I antibodies.

[3] = biological target: T2, dynamin I-endophilin I interaction (Rattus norvegicus, UniProt O35179); experiment: Elution of endophilin I from immunoprecipitated complex by peptide; type: binding; conditions: immunoprecipitated complex incubated with peptide
T2 construct: Syndapin I or dynamin I were immunoprecipitated from nerve terminals; from tissue; host or cells: rat brain crude (P2) synaptosomes
Experimental: as §2, §3

[4] = tested on: synaptosomes (synaptic vesicle turnover); experiment: SV turnover assay (FM2-10 loading/unloading) in synaptosomes; type: cell-based, rat
Experimental: as §1
Loading of FM2-10 (Molecular Probes) into recycling synaptosomal SVs was measured as previously described. Data is presented as Ca^2+-dependent FM2-10 unloading, which is the difference between release after loading in plus and minus Ca^2+ solutions. Where indicated, synaptosomes were preincubated with penetratin peptide for 30 min prior to stimulation of FM2-10 loading. […] The same assay was used to monitor the effect of penetratin peptide on SV exocytosis. However, in this instance, the synaptosomes were loaded with FM2-10 in plus Ca^2+ Krebs-like solution and, where indicated, were preincubated with penetratin peptide for 30 min prior to stimulation of FM2-10 unloading. Data is presented as Ca^2+-dependent FM2-10 unloading. The SV internalisation assay was performed as previously described.
SVE in synaptosomes was measured to determine whether the phosphorylation sites in dynamin I play a direct role in SVE. Since isolated nerve terminals cannot be transfected with DNA, a membrane-permeable peptide strategy was employed. Mimetic peptides (DynI769-784AA (SEQ ID No. 8) and DynI769-784EE (SEQ ID No. 9)) were designed corresponding to the amino acid sequence of the dynamin I phospho-box (FIG. 5a) and were tagged with a penetratin heptapeptide RRMKWKK (SEQ ID No. 12) to facilitate their delivery into synaptosomes. Briefly, synaptosomes were preincubated in the presence or absence of either penetratin peptide (250 μM) prior to FM2-10 loading stimulated by 30 mM KCl. Accumulated FM2-10 was unloaded by another KCl stimulus (indicated by the solid bar). […] If the phosphorylation-regulated syndapin I interaction itself is essential for SVE, the penetratin-linked peptides may inhibit the process. […] The DynI769-784AA peptide (250 μM) inhibited turnover by more than 40% (57.1±2.1% of control), compared to less than 20% with the DynI769-784EE peptide (250 μM, 81.1±2.4% of control).

T2 sequence (O35179 whole entry): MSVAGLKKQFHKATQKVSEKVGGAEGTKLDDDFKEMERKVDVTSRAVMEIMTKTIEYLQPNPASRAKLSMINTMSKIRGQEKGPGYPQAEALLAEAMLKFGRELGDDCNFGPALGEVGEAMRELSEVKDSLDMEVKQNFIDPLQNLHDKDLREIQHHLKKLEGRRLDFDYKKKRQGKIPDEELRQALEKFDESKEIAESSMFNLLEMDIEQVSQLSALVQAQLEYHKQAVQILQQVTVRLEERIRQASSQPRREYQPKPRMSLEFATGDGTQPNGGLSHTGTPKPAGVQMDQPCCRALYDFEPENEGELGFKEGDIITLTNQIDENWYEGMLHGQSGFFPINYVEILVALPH
T1 sequence (Q9Z0W5 whole entry, one chain of several): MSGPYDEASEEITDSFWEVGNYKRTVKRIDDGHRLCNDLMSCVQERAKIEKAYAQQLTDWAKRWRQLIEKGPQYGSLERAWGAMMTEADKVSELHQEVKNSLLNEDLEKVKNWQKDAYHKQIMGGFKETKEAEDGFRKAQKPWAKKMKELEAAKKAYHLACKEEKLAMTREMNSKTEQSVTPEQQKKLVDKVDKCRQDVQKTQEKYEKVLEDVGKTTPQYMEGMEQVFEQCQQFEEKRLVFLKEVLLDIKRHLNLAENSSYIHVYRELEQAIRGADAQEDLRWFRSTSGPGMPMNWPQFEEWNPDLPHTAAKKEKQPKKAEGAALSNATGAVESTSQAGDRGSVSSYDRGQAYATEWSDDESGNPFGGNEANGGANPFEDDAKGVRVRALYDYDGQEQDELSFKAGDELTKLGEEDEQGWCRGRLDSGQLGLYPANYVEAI

- dynamin I-syndapin I interaction (release of binding partner from bead-bound complex) [2]: reduced
- elution of endophilin I from complex [3]: No elution
Substance: DynI769-784AA: Dynamin I phospho-box mimetic peptide (residues 769-784), AA mutant, tagged with penetratin heptapeptide RRMKWKK (RRMKWKKPAGRRAPTSAPTPQRR; listed as Rattus norvegicus)
- KCl-evoked Ca2+-dependent glutamate release [1]: 92.5±8.4 % of control
- inhibition of SV turnover ([4]; peptide 250 μM): more than 40%
- SV turnover ([4]; peptide 250 μM, 30 min preincubation, FM2-10 loading with 30 mM KCl): 57.1±2.1 % of control
- retrieval efficiency (SV turnover/exocytosis) ([4]; using data from either exocytosis assay, value below one = selective SVE inhibition): robust inhibition
